Assay results reported in ChEMBL document CHEMBL1201862, “PubChem BioAssay data set” (2004).
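In this assay, cells in 96-well plates receive the compound at five concentrations for 48 hours. Endpoints are linearly interpolated between the surrounding concentrations. Here, GI50 denotes the concentration required for 50% inhibition of growth.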 The source made the active and inactive calls. Cut-off read from the data, not from the text of the source: active = GI50 up to about 1.1 µM and inactive = higher.

What was measured:
Assay in all cases: NCI anticancer screen, dose series, 48 h
786-0 = system: 786-0
NCI-H226 = system: NCI-H226
SF-295 = system: SF-295
OVCAR-8 = system: OVCAR-8
NCI-H460 = system: NCI-H460
HOP-62 = system: HOP-62
HCC 2998 = system: HCC 2998
SNB-75 = system: SNB-75
SK-MEL-2 = system: SK-MEL-2
HCT-116 = system: HCT-116
U-251 = system: U-251
M14 = system: M14
Malme-3M = system: Malme-3M
HL-60 = system: HL-60
SW-620 = system: SW-620
OVCAR-5 = system: OVCAR-5

SMILES | GI50 (786-0) | GI50 (NCI-H226) | GI50 (SF-295) | GI50 (OVCAR-8) | GI50 (NCI-H460) | GI50 (HOP-62) | GI50 (HCC 2998) | GI50 (SNB-75) | GI50 (SK-MEL-2) | GI50 (HCT-116) | GI50 (U-251) | GI50 (M14) | GI50 (Malme-3M) | GI50 (HL-60) | GI50 (SW-620) | GI50 (OVCAR-5)
COc1ccc(/C(=N/Nc2ccccc2)C(c2ccc(OC)cc2)C2OC(=O)c3ccccc32)cc1 (stereo not drawn) | > 100 µM (inactive) | 9.84 µM (inactive) | > 100 µM (inactive) | > 100 µM (inactive) | 95.7 µM (inactive) | > 100 µM (inactive) | > 100 µM (inactive) | 48.9 µM (inactive) | > 100 µM (inactive) | > 100 µM (inactive) | > 100 µM (inactive) | > 100 µM (inactive) | > 100 µM (inactive) |  |  | 
CCC1(N=[N+]=[N-])C(=O)Nc2cc(C)ccc2C1=O (stereo not drawn) | > 100 µM (inactive) |  | > 100 µM (inactive) | > 100 µM (inactive) | > 100 µM (inactive) | > 100 µM (inactive) | > 100 µM (inactive) | > 100 µM (inactive) | > 100 µM (inactive) | > 100 µM (inactive) | 96.2 µM (inactive) | 76.7 µM (inactive) | 68.1 µM (inactive) | 21.3 µM (inactive) | > 100 µM (inactive) | > 100 µM (inactive)
CN(C)c1ccc(/C=C(\NC(=O)c2ccccc2)c2nc3cncnc3[nH]2)cc1 | > 100 µM (inactive) |  | > 100 µM (inactive) | > 100 µM (inactive) |  |  | > 100 µM (inactive) |  | > 100 µM (inactive) |  | > 100 µM (inactive) | > 100 µM (inactive) | > 100 µM (inactive) | > 100 µM (inactive) | > 100 µM (inactive) | > 100 µM (inactive)
O=C1C(Cl)C(c2ccc(Cl)cc2)N1n1cnc2ccccc2c1=O (stereo not drawn) | > 100 µM (inactive) | > 100 µM (inactive) | 82.8 µM (inactive) | > 100 µM (inactive) | > 100 µM (inactive) | > 100 µM (inactive) | > 100 µM (inactive) | 26.2 µM (inactive) | > 100 µM (inactive) | > 100 µM (inactive) | > 100 µM (inactive) | > 100 µM (inactive) | > 100 µM (inactive) | 39 µM (inactive) | 77.8 µM (inactive) | > 100 µM (inactive)
C=C1C(=O)C23C(O)C1CCC2C12CO[C@]3(O)[C@@H](O)C1C(C)(C)CCC2O (stereo partly drawn) | 12.2 µM (inactive) | 18.8 µM (inactive) | 16.7 µM (inactive) | 7.5 µM (inactive) | 11.2 µM (inactive) | 24.4 µM (inactive) | 16.1 µM (inactive) | 15.7 µM (inactive) | 15.7 µM (inactive) | 10.4 µM (inactive) | 17.4 µM (inactive) | 11.6 µM (inactive) | 5.92 µM (inactive) | 5.01 µM (inactive) | 5.81 µM (inactive) | 20.2 µM (inactive)
N=C(N)Nc1nc2cc(N)ccc2o1 | > 100 µM (inactive) | > 100 µM (inactive) | > 100 µM (inactive) | > 100 µM (inactive) | > 100 µM (inactive) | > 100 µM (inactive) | > 100 µM (inactive) | > 100 µM (inactive) | > 100 µM (inactive) | > 100 µM (inactive) | > 100 µM (inactive) | > 100 µM (inactive) | > 100 µM (inactive) | > 100 µM (inactive) | > 100 µM (inactive) | 
COc1cccc2c1[C@]1(O)C(O)CCCC21 (stereo partly drawn) | > 100 µM (inactive) | > 100 µM (inactive) | > 100 µM (inactive) | > 100 µM (inactive) | > 100 µM (inactive) | > 100 µM (inactive) | > 100 µM (inactive) | > 100 µM (inactive) | > 100 µM (inactive) | > 100 µM (inactive) | > 100 µM (inactive) | > 100 µM (inactive) | > 100 µM (inactive) |  | > 100 µM (inactive) | > 100 µM (inactive)
COc1c(CC(=O)c2ccccc2)c2ccccc2n1C(C)=O | 29.9 µM (inactive) |  | 72.9 µM (inactive) | 91 µM (inactive) | > 100 µM (inactive) | > 100 µM (inactive) | > 100 µM (inactive) | > 100 µM (inactive) | > 100 µM (inactive) | > 100 µM (inactive) | > 100 µM (inactive) | > 100 µM (inactive) |  | > 100 µM (inactive) | > 100 µM (inactive) | 
CCOC(=O)c1cc(OC(=O)CC)c2c(OC)ccc(OC)c2c1 | 31 µM (inactive) |  |  |  | > 100 µM (inactive) |  | > 100 µM (inactive) | 11.4 µM (inactive) | > 100 µM (inactive) | 70.1 µM (inactive) | 53.6 µM (inactive) |  | > 100 µM (inactive) |  | 66.5 µM (inactive) | 46.1 µM (inactive)
CCOc1ccc(NC(=O)C(=O)C(C(=O)c2ccc3ccccc3c2)C2OC(=O)c3ccccc32)cc1 (stereo not drawn) | 6.47 µM (inactive) | 3.31 µM (inactive) |  | 17.6 µM (inactive) | 5.09 µM (inactive) | 17.5 µM (inactive) | 11.2 µM (inactive) | 15.7 µM (inactive) | 15.5 µM (inactive) | 15.7 µM (inactive) | 5.04 µM (inactive) | 18.5 µM (inactive) | 10.9 µM (inactive) |  | 15.6 µM (inactive) | 30.9 µM (inactive)
CC/C(=N/O)C(C)C(=O)CCC(=O)Nc1ccc(Cl)cc1 (stereo not drawn) | > 100 µM (inactive) | > 100 µM (inactive) | > 100 µM (inactive) | > 100 µM (inactive) | > 100 µM (inactive) |  | > 100 µM (inactive) | 49.9 µM (inactive) | > 100 µM (inactive) | > 100 µM (inactive) | > 100 µM (inactive) | > 100 µM (inactive) | > 100 µM (inactive) | > 100 µM (inactive) | > 100 µM (inactive) | > 100 µM (inactive)
CC(C)(C)S(=O)OC12CC3CC(CC(C3)C1)C2 (stereo not drawn) | > 100 µM (inactive) | > 100 µM (inactive) | > 100 µM (inactive) | > 100 µM (inactive) | > 100 µM (inactive) | > 100 µM (inactive) |  | 33.8 µM (inactive) | > 100 µM (inactive) | > 100 µM (inactive) | > 100 µM (inactive) | > 100 µM (inactive) | > 100 µM (inactive) |  | > 100 µM (inactive) | > 100 µM (inactive)
CNC(=O)C(C)Oc1ccc(OCC2CCCCC2)cc1 (stereo not drawn) | > 100 µM (inactive) | > 100 µM (inactive) | 60.7 µM (inactive) | > 100 µM (inactive) | 50.4 µM (inactive) |  |  | 96.2 µM (inactive) | > 100 µM (inactive) | > 100 µM (inactive) | > 100 µM (inactive) | > 100 µM (inactive) | 25.3 µM (inactive) | 34.4 µM (inactive) |  | 
C/N=C(/NC)N(C)c1nc(=[N+](C)C)ss1.[O-][Cl+3]([O-])([O-])[O-] | > 100 µM (inactive) | 59.3 µM (inactive) | > 100 µM (inactive) | > 100 µM (inactive) | > 100 µM (inactive) | > 100 µM (inactive) | > 100 µM (inactive) |  | > 100 µM (inactive) | 62.1 µM (inactive) | > 100 µM (inactive) | > 100 µM (inactive) |  | 46 µM (inactive) | > 100 µM (inactive) | > 100 µM (inactive)
NC1=NS(=O)(=O)Nc2nc(-c3cccs3)[nH]c21 | > 100 µM (inactive) |  | > 100 µM (inactive) | > 100 µM (inactive) | > 100 µM (inactive) | > 100 µM (inactive) | > 100 µM (inactive) | > 100 µM (inactive) | > 100 µM (inactive) | > 100 µM (inactive) | > 100 µM (inactive) | > 100 µM (inactive) | > 100 µM (inactive) | > 100 µM (inactive) | > 100 µM (inactive) | > 100 µM (inactive)
CN1CCN(C)C1c1cccc(C2N(C)CCN2C)c1 | > 100 µM (inactive) | > 100 µM (inactive) | > 100 µM (inactive) |  | > 100 µM (inactive) | > 100 µM (inactive) | > 100 µM (inactive) | 48.2 µM (inactive) | > 100 µM (inactive) | > 100 µM (inactive) | > 100 µM (inactive) | > 100 µM (inactive) |  | > 100 µM (inactive) |  | > 100 µM (inactive)
CN1N=CSC12C(=O)N(c1ccc(Cl)cc1)C(=O)N2c1ccc(Cl)cc1 (stereo not drawn) | 4.22 µM (inactive) | 3.04 µM (inactive) | 3.28 µM (inactive) | 3.51 µM (inactive) | 3.27 µM (inactive) | 3.69 µM (inactive) | 3.33 µM (inactive) | 3.99 µM (inactive) |  | 3.15 µM (inactive) | 3.67 µM (inactive) | 5.42 µM (inactive) | 3.55 µM (inactive) | 2.13 µM (inactive) | 4.52 µM (inactive) | 
CC(C)(C)c1cc(C(O)(C(F)(F)F)C(F)(F)F)c2c(c1)C(C(F)(F)F)(C(F)(F)F)OC(c1ccccc1)(C(C)(C)C)N2 (stereo not drawn) | > 100 µM (inactive) | 3.24 µM (inactive) | 6.56 µM (inactive) | 6.05 µM (inactive) | 2.65 µM (inactive) |  | 8.07 µM (inactive) | 2.82 µM (inactive) | 4.45 µM (inactive) | 3.72 µM (inactive) | 3.3 µM (inactive) | 0.659 µM (active) | 7.06 µM (inactive) |  | 4.5 µM (inactive) | 18.8 µM (inactive)
O=C1N(Cl)C(=O)C(c2ccc(Cl)cc2)(c2ccc(Cl)cc2)N1Cl | 48.3 µM (inactive) | > 100 µM (inactive) | 55.3 µM (inactive) | 71.4 µM (inactive) | 52.2 µM (inactive) |  | > 100 µM (inactive) | > 100 µM (inactive) | > 100 µM (inactive) | 72.6 µM (inactive) | > 100 µM (inactive) | 34.4 µM (inactive) | > 100 µM (inactive) | 26.1 µM (inactive) | > 100 µM (inactive) | 
